Results as given in the supplement of paper PMC10627819.

Assays:
[1] = system: B. subtilis 168; test: Bliss interaction score (quartile over a dose matrix) (fitness difference); higher = more antagonism (negative = synergy)
Summary of the method: (§1)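 Quartiles summarise the Bliss score over technical, biological and donor/recipient replicates, where the score is observed minus expected fitness under a product model. Expected fitness uses single-drug values inferred from combination data. Fitness is OD595 at entry into stationary phase over the plate's robust no-drug mean, capped at 1.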

[2] = system: S. aureus DSM 20231; test: as above
Summary of the method: as §1

[3] = system: S. aureus Newman; test: as above
Summary of the method: as §1

[4] = system: S. pneumoniae D39V; test: as above
Summary of the method: as §1

[5] = system: B. subtilis 168; test: fitness (endpoint OD595 vs no drug) (fraction); higher = more growth
Summary of the method: (§2)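 Fitness compares growth at the stationary-phase transition with the robust mean of no-drug control wells, as a ratio of optical densities. The ratio is capped at 1. Wells of 384-well plates held 30 µl, or 55 µl for S. pneumoniae, inoculated at OD595 0.01. Readings at OD595 every 30 min for 14 h at 37 °C were corrected against the first reading.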

[6] = system: S. aureus DSM 20231; test: as above
Summary of the method: as §2

[7] = system: S. aureus Newman; test: as above
Summary of the method: as §2

[8] = system: S. pneumoniae D39V; test: as above
Summary of the method: as §2
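Throughout, for Bliss interaction score (quartile over a dose matrix): first quartile when negative (synergy) and third quartile when positive (antagonism).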

Cc1onc(-c2ccccc2)c1C(=O)N[C@@H]1C(=O)N2[C@@H]1SC(C)(C)[C@@H]2C(=O)O [Oxacillin] + CC1=C\[C@@H](O)CC(=O)Cc2nc(co2)C(=O)N2CCC=C2C(=O)O[C@H](C(C)C)[C@H](C)/C=C/C(=O)NC\C=C\1 [Virginiamycin M1]
Conditions	Bliss interaction score
[1]	0.0548
[2]	-0.0341
[3]	0.0583
[4]	0.114

Conditions	fitness
[5], first compound 0.002 µg/mL, partner 0.0625 µg/mL	0.993
[5], first compound 0.002 µg/mL, partner 0.125 µg/mL	0.954
[5], first compound 0.002 µg/mL, partner 0.25 µg/mL	0.977
[5], first compound 0.004 µg/mL, partner 0.0625 µg/mL	0.98
[5], first compound 0.004 µg/mL, partner 0.125 µg/mL	0.941
[5], first compound 0.004 µg/mL, partner 0.25 µg/mL	0.973
[5], first compound 0.008 µg/mL, partner 0.0625 µg/mL	0.962
[5], first compound 0.008 µg/mL, partner 0.125 µg/mL	0.905
[5], first compound 0.008 µg/mL, partner 0.25 µg/mL	0.962
[6], first compound 0.0156 µg/mL, partner 0.0625 µg/mL	0.803
[6], first compound 0.0156 µg/mL, partner 0.125 µg/mL	0.808
[6], first compound 0.0156 µg/mL, partner 0.25 µg/mL	0.775
[6], first compound 0.0312 µg/mL, partner 0.0625 µg/mL	0.61
[6], first compound 0.0312 µg/mL, partner 0.125 µg/mL	0.686
[6], first compound 0.0312 µg/mL, partner 0.25 µg/mL	0.628
[6], first compound 0.0625 µg/mL, partner 0.0625 µg/mL	0.492
[6], first compound 0.0625 µg/mL, partner 0.125 µg/mL	0.514
[6], first compound 0.0625 µg/mL, partner 0.25 µg/mL	0.545
[7], first compound 0.0156 µg/mL, partner 0.0625 µg/mL	0.755
[7], first compound 0.0156 µg/mL, partner 0.125 µg/mL	0.761
[7], first compound 0.0156 µg/mL, partner 0.25 µg/mL	0.763
[7], first compound 0.0312 µg/mL, partner 0.0625 µg/mL	0.71
[7], first compound 0.0312 µg/mL, partner 0.125 µg/mL	0.709
[7], first compound 0.0312 µg/mL, partner 0.25 µg/mL	0.694
[7], first compound 0.0625 µg/mL, partner 0.0625 µg/mL	0.622
[7], first compound 0.0625 µg/mL, partner 0.125 µg/mL	0.623
[7], first compound 0.0625 µg/mL, partner 0.25 µg/mL	0.643
[8], first compound 0.01 µg/mL, partner 0.5 µg/mL	0.986
[8], first compound 0.01 µg/mL, partner 1 µg/mL	0.98
[8], first compound 0.01 µg/mL, partner 2 µg/mL	0.961
[8], first compound 0.02 µg/mL, partner 0.5 µg/mL	0.964
[8], first compound 0.02 µg/mL, partner 1 µg/mL	0.965
[8], first compound 0.02 µg/mL, partner 2 µg/mL	0.913
[8], first compound 0.04 µg/mL, partner 0.5 µg/mL	0.539
[8], first compound 0.04 µg/mL, partner 1 µg/mL	0.568

one replicate
Conditions	fitness
[5], first compound 0.075 µg/mL, partner 0.0625 µg/mL	0.461
[5], first compound 0.075 µg/mL, partner 0.125 µg/mL	0.639
[5], first compound 0.075 µg/mL, partner 0.25 µg/mL	0.53
[5], first compound 0.15 µg/mL, partner 0.0625 µg/mL	0.0434
[5], first compound 0.15 µg/mL, partner 0.125 µg/mL	0.0511
[5], first compound 0.15 µg/mL, partner 0.25 µg/mL	0.0511
[5], first compound 0.3 µg/mL, partner 0.0625 µg/mL	0.04
[5], first compound 0.3 µg/mL, partner 0.125 µg/mL	0.0604
[5], first compound 0.3 µg/mL, partner 0.25 µg/mL	0.0635
[6], first compound 0.0156 µg/mL, partner 0.5 µg/mL	0.835
[6], first compound 0.0156 µg/mL, partner 1 µg/mL	0.903
[6], first compound 0.0312 µg/mL, partner 0.5 µg/mL	0.719
[6], first compound 0.0312 µg/mL, partner 1 µg/mL	0.746
[6], first compound 0.0625 µg/mL, partner 0.5 µg/mL	0.517
[6], first compound 0.0625 µg/mL, partner 1 µg/mL	0.64
[7], first compound 0.0156 µg/mL, partner 0.5 µg/mL	0.815
[7], first compound 0.0156 µg/mL, partner 1 µg/mL	0.882
[7], first compound 0.0156 µg/mL, partner 2 µg/mL	0.843
[7], first compound 0.0312 µg/mL, partner 0.5 µg/mL	0.752
[7], first compound 0.0312 µg/mL, partner 1 µg/mL	0.78
[7], first compound 0.0312 µg/mL, partner 2 µg/mL	0.723
[7], first compound 0.0625 µg/mL, partner 0.5 µg/mL	0.597
[7], first compound 0.0625 µg/mL, partner 1 µg/mL	0.671
[7], first compound 0.0625 µg/mL, partner 2 µg/mL	0.676
[8], first compound 0.01 µg/mL, partner 0.15 µg/mL	≥ 1
[8], first compound 0.01 µg/mL, partner 0.3 µg/mL	≥ 1
[8], first compound 0.02 µg/mL, partner 0.15 µg/mL	≥ 1
[8], first compound 0.02 µg/mL, partner 0.3 µg/mL	≥ 1
[8], first compound 0.04 µg/mL, partner 0.15 µg/mL	0.994
[8], first compound 0.04 µg/mL, partner 0.3 µg/mL	0.989

Cn1c2cccc(=O)c-2nc2ccccc21 [Pyocyanin] + CN[C@@H]1[C@H](O)[C@H](NC)[C@H]2O[C@@]3(O)C(=O)C[C@@H](C)O[C@H]3O[C@@H]2[C@H]1O [Spectinomycin]
Conditions	Bliss interaction score
[1]	-0.0432
[2]	-0.0492
[3]	0.0628
[4]	0.0496

fitness
Conditions	partner 2 µg/mL	partner 4 µg/mL	partner 8 µg/mL	partner 16 µg/mL
[5], first compound 1.25 µg/mL	0.907	0.914	0.861	–
[5], first compound 2.5 µg/mL	0.887	0.876	0.857	–
[5], first compound 5 µg/mL	0.762	0.757	0.708	–
[6], first compound 1.25 µg/mL	–	0.884	0.93	0.82
[6], first compound 2.5 µg/mL	–	0.868	0.86	0.716
[6], first compound 5 µg/mL	–	0.688	0.726	0.582
[7], first compound 1.25 µg/mL	–	0.853	0.867	0.853
[7], first compound 2.5 µg/mL	–	0.761	0.766	0.697
[8], first compound 0.325 µg/mL	–	0.995	0.955	–
[8], first compound 0.65 µg/mL	–	0.96	0.944	–

fitness, one replicate
Conditions	[6]	[7]	[8]
first compound 0.325 µg/mL, partner 16 µg/mL	–	–	0.729
first compound 0.65 µg/mL, partner 16 µg/mL	–	–	0.885
first compound 1.25 µg/mL, partner 32 µg/mL	0.656	0.591	–
first compound 1.25 µg/mL, partner 64 µg/mL	0.0503	0.11	–
first compound 1.3 µg/mL, partner 4 µg/mL	–	–	0.776
first compound 1.3 µg/mL, partner 8 µg/mL	–	–	0.792
first compound 2.5 µg/mL, partner 32 µg/mL	0.638	0.489	–
first compound 2.5 µg/mL, partner 64 µg/mL	0.0416	0.0964	–
first compound 5 µg/mL, partner 32 µg/mL	0.342	0.268	–
first compound 5 µg/mL, partner 64 µg/mL	0.0295	0.0535	–

CC[C@H]1OC(=O)[C@H](C)[C@@H](O[C@H]2C[C@@](C)(OC)[C@@H](O)[C@H](C)O2)[C@H](C)[C@@H](O[C@@H]2O[C@H](C)C[C@H](N(C)C)[C@H]2O)[C@](C)(O)C[C@@H](C)CN(C)[C@H](C)[C@@H](O)[C@]1(C)O [Azithromycin] + Cc1cc(NS(=O)(=O)c2ccc(N)cc2)no1 [Sulfamethoxazol]
Conditions	Bliss interaction score
[1]	0.0534
[2]	-0.0683
[3]	-0.0991
[4]	0.071

fitness
Conditions	partner 1 µg/mL	partner 2 µg/mL	partner 4 µg/mL
[5], first compound 0.25 µg/mL	0.901	0.89	0.895
[5], first compound 0.5 µg/mL	0.871	0.834	0.849
[6], first compound 0.125 µg/mL	0.911	0.85	0.913
[6], first compound 0.25 µg/mL	0.85	0.839	0.869
[6], first compound 0.5 µg/mL	–	0.545	0.516
[7], first compound 0.125 µg/mL	0.849	0.88	0.86
[7], first compound 0.25 µg/mL	0.85	0.869	0.837

one replicate
Conditions	fitness
[5], first compound 0.5 µg/mL, partner 0.5 µg/mL	0.899
[5], first compound 1 µg/mL, partner 0.5 µg/mL	0.788
[5], first compound 2 µg/mL, partner 0.5 µg/mL	0.029
[5], first compound 2 µg/mL, partner 1 µg/mL	0.105
[5], first compound 2 µg/mL, partner 2 µg/mL	0.126
[7], first compound 0.125 µg/mL, partner 8 µg/mL	0.895
[7], first compound 0.25 µg/mL, partner 8 µg/mL	0.873
[7], first compound 0.5 µg/mL, partner 8 µg/mL	0.893

CC[C@H]1OC(=O)[C@H](C)[C@@H](O[C@H]2C[C@@](C)(OC)[C@@H](O)[C@H](C)O2)[C@H](C)[C@@H](O[C@@H]2O[C@H](C)C[C@H](N(C)C)[C@H]2O)[C@](C)(O)C[C@@H](C)CN(C)[C@H](C)[C@@H](O)[C@]1(C)O [Azithromycin] + CCC[C@@H]1C[C@@H](C(=O)N[C@@H]([C@H]2O[C@H](SC)[C@H](O)[C@@H](O)[C@H]2O)[C@H](C)Cl)N(C)C1 [Clindamycin]
Conditions	Bliss interaction score
[1]	0.109
[2]	-0.0395
[3]	-0.0621
[4]	0.0737

fitness
Conditions	first compound 0.125 µg/mL	first compound 0.25 µg/mL	first compound 0.5 µg/mL	first compound 1 µg/mL
[5], partner 0.0625 µg/mL	–	0.632	0.554	–
[5], partner 0.125 µg/mL	–	0.388	0.379	–
[5], partner 0.25 µg/mL	–	0.367	0.299	0.0793
[6], partner 0.0312 µg/mL	–	–	0.142	–
[6], partner 0.0625 µg/mL	–	–	0.0702	–
[6], partner 0.125 µg/mL	0.0728	0.0466	0.0384	–
[7], partner 0.0312 µg/mL	0.693	–	0.481	–
[7], partner 0.125 µg/mL	–	0.113	0.0923	–

fitness, [5], one replicate
Conditions	first compound 0.5 µg/mL	first compound 1 µg/mL	first compound 2 µg/mL
partner 0.0039 µg/mL	0.945	0.922	0.516
partner 0.0078 µg/mL	0.84	0.776	0.186
partner 0.0156 µg/mL	0.776	0.715	0.23
